The subject of test [1] is locomotion and cataleptic response. In words: Open field test and ring test. It is filed as in vivo, female Sabra mice. The settings on record: i.p., Sabra mice. The procedure: To study the functional effects of IA on the CNS, IA was assayed in a panel of standard behavioral assays in mice (female Sabra strain, 15-20 weeks old), namely: the elevated plus maze [Crawley, J. N. What's Wrong with my Mouse? Behavioral Phenotyping of Transgenic and Knockout Mice (Wiley-Liss, New York, 2000)], the Porsolt forced-swimming test [Petit-Demouliere, B., Chenu, F. & Bourin, M. Forced swimming test in mice: a review of antidepressant activity. Psychopharmacology 177, 245-255 (2005)], locomotion in the open field test and cataleptic response in a ring test [Fride, E. & Mechoulam, R. Pharmacological activity of the cannabinoid receptor agonist, anandamide, a brain constituent. Eur. J. Pharmacol. 231, 313-314 (1993). The elevated plus maze assay is based on the preference of mice for the closed arms of a maze, apparently due to fear of open spaces.

Test [2] addresses T1, TRPV3 (Mus musculus, UniProt Q8K424).
T1 sequence (Q8K424 1-791): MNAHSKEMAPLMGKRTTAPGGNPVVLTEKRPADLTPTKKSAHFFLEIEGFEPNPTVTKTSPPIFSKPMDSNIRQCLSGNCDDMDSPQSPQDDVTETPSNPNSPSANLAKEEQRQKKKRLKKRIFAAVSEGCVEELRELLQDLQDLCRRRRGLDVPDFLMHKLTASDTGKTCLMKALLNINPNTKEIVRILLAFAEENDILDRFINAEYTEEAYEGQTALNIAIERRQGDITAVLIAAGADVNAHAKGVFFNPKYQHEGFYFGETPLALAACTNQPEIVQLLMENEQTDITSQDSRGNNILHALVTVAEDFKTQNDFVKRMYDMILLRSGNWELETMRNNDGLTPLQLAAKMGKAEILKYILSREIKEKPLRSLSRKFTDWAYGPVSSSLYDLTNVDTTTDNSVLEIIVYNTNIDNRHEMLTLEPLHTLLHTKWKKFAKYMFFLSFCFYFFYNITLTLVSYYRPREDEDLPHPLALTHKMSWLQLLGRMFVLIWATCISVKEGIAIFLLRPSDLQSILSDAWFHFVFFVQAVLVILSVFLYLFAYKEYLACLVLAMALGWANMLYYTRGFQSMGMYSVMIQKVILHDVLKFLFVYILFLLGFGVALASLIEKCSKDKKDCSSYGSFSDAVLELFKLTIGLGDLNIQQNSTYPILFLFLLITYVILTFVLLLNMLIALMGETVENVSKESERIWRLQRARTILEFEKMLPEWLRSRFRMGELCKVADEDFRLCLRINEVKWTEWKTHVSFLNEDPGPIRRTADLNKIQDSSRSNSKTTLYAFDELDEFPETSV
The test is described as follows: Porsolt forced swimming test in WT and TRPV3−/− mice. Also on record: from tissue; host or cells: whole animal, wild type C57BL/6 female mice (TRPV3 KO as control). It is filed as in vivo, C57BL/6 mice. The settings on record: 75 mg/kg. The procedure: Wild type and TRPV3^−/− mice (18-20 weeks old) were injected with vehicle (isopropanol:emulphor:saline=1:1:18) or IA (75 mg/kg). 30 min later they were tested in a, the elevated plus maze (5 min), followed by b, 9 min exposure to the Porsolt forced-swimming test. […] Data are presented as means±SEM; n=4-5. * p<0.05, compared to WT-Vehicle-injected mice (Bonferroni post hoc test). ** p<0.01, compared to WT-Vehicle-injected mice (Bonferroni post hoc test).
Animals and procedures. Female Sabra mice (Harlan, Israel, 15-20 weeks old) and wild type C57BL/6 or TRPV3 KO female mice (18-20 weeks old) [Chung, M. K., Lee, H., Mizuno, A., Suzuki, M. & Caterina, M. J. TRPV3 and TRPV4 mediate warmth-evoked currents in primary mouse keratinocytes. J. Biol. Chem. 279, 21569-21575 (2004)] were used for behavioral assessments. 10 mice were housed in each cage. The animal care and protocols met the guidelines of the U.S. National Institutes of Health, detailed in the Guide for the Care and Use of Laboratory Animals, and were applied in conformity with the Institutional Ethics Committees. For the c-Fos immunostaining, female Sabra mice (see above) were used. Temperature in the animal room was maintained between 20-22° C., the light cycle was 12 h lights on (8:00-20:00 h); 12 h lights off (20:00-8:00 h). […]

The subject of test [3] is closed head injury. In words: Neurological severity score (NSS) recovery after closed head injury (CHI). To be noted: 50 mg/kg i.p. The format is in vivo, mice. The procedure: This effect was sustained from 24 h to 21 days following injury as determined by the Mann-Whitney test (n=9-10 per group; * p<0.01; **p<0.001, as compared to vehicle treated, at the same day). (B) Mice were subjected to the object recognition test (Example 6) 3, 7, 14 and 21 days after CHI. The absolute time spent exploring each of the two objects was recorded and the % time calculated. At baseline (bl), when presented with two identical objects, exploration time of each object was about 50% in both groups. In the test (T) situation, after one of the objects was replaced by a novel one the % time spent exploring the new object was calculated.
At 1 h after CHI, the functional status of the mice was evaluated according to a set of 10 neurobehavioral tasks (neurological severity score, NSS) that tests reflexes, alertness coordination, and motor abilities. One point was awarded for absence of reflex or failure to perform a particular task. […] Mice were equally divided to vehicle\ IA groups according to their NSS scores. Only mice with NSS>4 at 1 h after injury were included in the study. […] Recovery (ΔNSSt) was defined as the difference between NSS1h and NSS measured at any later time point and was determined at several time points up to 21 days following CHI.

Consider 1 compound from US20100099756A1, “USES OF INCENSOLE, INCENSOLE ACETATE AND DERIVATIVES THEREOF” (YISSUM RESEARCH DEVELOPMENT COMPANY OF THE HEBREW …, priority 2006, published 2010).

Molecules are shown by their SMILES.

`CC(=O)OC1CC/C(C)=C/CC/C(C)=C/CC2(C(C)C)CCC1(C)O2` (centres unmarked) [IA, incensole acetate]: in test [1], the “immobility on a ring” value was “impaired immobility on a ring” and the open field behavior result was “significant reduction of open field behavior”. Besides, the “immobility time, WT mice” value in test [2] is reported as “significantly reduced the immobility time”. In test [3] (24 h after injury, P=0.002 vs vehicle), the “ΔNSS (recovery of motor ability)” value turned out to be 1.00±0.12. For the same compound, the “ΔNSS at subsequent time points” value in test [3] (up to 3 weeks post injury, vs vehicle) is reported as “significantly higher”.
